# ChEMBL document CHEMBL3885861, “Open TG-GATES”
# Species on record: Rattus norvegicus
# Assay: Open TG-GATES - Regimen: Daily Repeat
# Format: toxicity, organism-based, Sprague-Dawley
# Parameters: regimen Daily Repeat, gender Male, age 6 weeks
# Conditions: in vivo, po, 100 mg/kg, route gavage, dose level High; for APTT / Bas / Eos / Fbg / Hb / Ht / Lym / MCH / MCHC / MCV / Mono / Neu / PT / Plat / RBC / Ret / WBC: tissue Blood
# [1] = 72 h, tissue Kidney, time 3 day
# [2] = 72 h, tissue Plasma, time 3 day
compound,measurement,setting,value
CC1=C(/C=C/C(C)=C/C=C/C(C)=C/CO)C(C)(C)CCC1 [RETINOL],TERMINAL_BW,"72 h, time 3 day",214.3 g
same,APTT,"72 h, time 3 day",29 s
same,Bas,"72 h, time 3 day",0%
same,Eos,"72 h, time 3 day",0.4%
same,Fbg,"72 h, time 3 day",274.4 mg/dL
same,Hb,"72 h, time 3 day",13.8 g/dL
same,Ht,"72 h, time 3 day",39.8%
same,Lym,"72 h, time 3 day",74.4%
same,MCH,"72 h, time 3 day",21 pg
same,MCHC,"72 h, time 3 day",34.6%
same,MCV,"72 h, time 3 day",60.9 fL
same,Mono,"72 h, time 3 day",3.4%
same,Neu,"72 h, time 3 day",20.6%
same,PT,"72 h, time 3 day",18.1 s
same,Plat,"72 h, time 3 day",112.8 x10_4/uL
same,RBC,"72 h, time 3 day",654.8 x10_4/ul
same,Ret,"72 h, time 3 day",4.3%
same,WBC,"72 h, time 3 day",95.3 x10_2/uL
same,KIDNEY_L,[1],1 g
same,KIDNEY_R,[1],1 g
same,KIDNEY_TOTAL,[1],2 g
same,LIVER,"72 h, tissue Liver, time 3 day",10.3 g
same,A/G,[2],1.3
same,ALP,[2],2174.2 IU/L
same,ALT,[2],52.2 IU/L
same,AST,[2],83.8 IU/L
same,BUN,[2],17 mg/dL
same,CRE,[2],0.1 mg/dL
same,Ca,[2],11.1 mg/dL
same,Cl,[2],107 meq/L
same,DBIL,[2],0.004 mg/dL
same,GLC,[2],192.2 mg/dL
same,IP,[2],7.9 mg/dL
same,K,[2],4.3 meq/L
same,LDH,[2],241 IU/L
same,Na,[2],141.8 meq/L
same,PL,[2],151.2 mg/dL
same,RALB,[2],3.1 g/dL
same,TBIL,[2],0.01 mg/dL
same,TC,[2],70.6 mg/dL
same,TG,[2],196.2 mg/dL
same,TP,[2],5.6 g/dL
same,gamma-GTP,[2],1.4 IU/L
same,TERMINAL_BW,"[…], time 7 day",231.5 g
same,TERMINAL_BW,"[…], time 14 day",234.2 g
same,TERMINAL_BW,"[…], time 28 day",190.7 g
same,APTT,"[…], time 7 day",32.7 s
same,Bas,"[…], time 7 day",0%
same,Eos,"[…], time 7 day",0.2%
same,Fbg,"[…], time 7 day",293.8 mg/dL
same,Hb,"[…], time 7 day",13.6 g/dL
same,Ht,"[…], time 7 day",38.5%
same,Lym,"[…], time 7 day",73.2%
same,MCH,"[…], time 7 day",21.1 pg
same,MCHC,"[…], time 7 day",35.2%
same,MCV,"[…], time 7 day",60 fL
same,Mono,"[…], time 7 day",2.6%
same,Neu,"[…], time 7 day",22.4%
same,PT,"[…], time 7 day",16.1 s
same,Plat,"[…], time 7 day",114.4 x10_4/uL
same,RBC,"[…], time 7 day",642.2 x10_4/ul
same,Ret,"[…], time 7 day",2%
same,WBC,"[…], time 7 day",102.2 x10_2/uL
same,APTT,"[…], time 14 day",43.8 s
same,Bas,"[…], time 14 day",0%
same,Eos,"[…], time 14 day",0.4%
same,Fbg,"[…], time 14 day",373.8 mg/dL
same,Hb,"[…], time 14 day",13 g/dL
same,Ht,"[…], time 14 day",36.5%
same,Lym,"[…], time 14 day",62.8%
same,MCH,"[…], time 14 day",20.2 pg
same,MCHC,"[…], time 14 day",35.6%
same,MCV,"[…], time 14 day",56.6 fL
same,Mono,"[…], time 14 day",4.2%
same,Neu,"[…], time 14 day",31.8%
same,PT,"[…], time 14 day",18.5 s
same,Plat,"[…], time 14 day",127.2 x10_4/uL
same,RBC,"[…], time 14 day",644.8 x10_4/ul
same,Ret,"[…], time 14 day",1.3%
same,WBC,"[…], time 14 day",139.1 x10_2/uL
same,APTT,"[…], time 28 day",37 s
same,Bas,"[…], time 28 day",0%
same,Eos,"[…], time 28 day",0.5%
same,Fbg,"[…], time 28 day",294 mg/dL
same,Hb,"[…], time 28 day",12.1 g/dL
same,Ht,"[…], time 28 day",34.3%
